Results: paper PMC7921063, “The Effects of Genetic Mutations and Drugs on the Activity of the Thiamine Transporter, SLC19A2” (The AAPS Journal, 2021)

molecular target: T1, SLC19A2 (Homo sapiens, UniProt O60779); test: SLC19A2 inhibitor screen: [3H]-thiamine uptake in SLC19A2-overexpressing HEK293 cells; format: cell-based; design: host or cells: HEK293, stably overexpressing SLC19A2 and transiently transfected with a further 500 ng wild-type plasmid; conditions: HEK293, 10 min, drug 1 mM, [3H]-thiamine 25 nM, 10 min, HEK293 cells expressing SLC19A2; relative to uptake without inhibitor; read-out: Average % SLC19A2 thiamine uptake
T1 sequence (O60779 1-497): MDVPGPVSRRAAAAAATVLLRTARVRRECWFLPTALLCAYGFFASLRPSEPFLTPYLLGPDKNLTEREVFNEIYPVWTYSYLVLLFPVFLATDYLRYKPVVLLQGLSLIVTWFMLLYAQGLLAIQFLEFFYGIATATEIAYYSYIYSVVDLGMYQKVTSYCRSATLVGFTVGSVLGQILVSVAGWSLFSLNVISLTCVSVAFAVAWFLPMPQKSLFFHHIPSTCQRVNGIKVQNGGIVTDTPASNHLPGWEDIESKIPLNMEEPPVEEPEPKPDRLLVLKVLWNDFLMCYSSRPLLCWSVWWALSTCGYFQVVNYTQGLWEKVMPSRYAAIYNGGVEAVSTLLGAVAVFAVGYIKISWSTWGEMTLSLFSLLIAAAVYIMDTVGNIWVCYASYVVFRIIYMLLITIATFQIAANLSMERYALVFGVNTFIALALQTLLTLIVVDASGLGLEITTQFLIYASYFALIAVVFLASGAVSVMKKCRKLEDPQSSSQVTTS
Protocol: Plasmids encoding wild-type SLC19A2 and three TRMA-associated variants were generated by Genscript Inc. (Piscataway, USA). Methods for generation of stably overexpressing SLC19A2 cell lines and uptake studies have been previously described ([11], [12]). Inhibition and kinetic studies were performed in SLC19A2-overexpressing stable HEK293 cells transiently transfected with an additional 500 ng of SLC19A2 wild-type plasmid.
Prescription drugs associated with MA ([2]) in addition to others belonging to listed drug classes (e.g., proton-pump inhibitors; 63 compounds total) were screened in triplicate at 1 mM to evaluate inhibitory activity against SLC19A2. […] Each plate contained control wells exposed for 10 min (within linear range, Supplemental Figure 1) to [^3H]-thiamine (positive control), [^3H]-thiamine plus 1 mM of amprolium (negative control), and [^3H]-thiamine plus 1 mM of screened drug (3 replicates per drug). Methods have been previously described ([11]). SLC19A2 inhibitors were defined as compounds that decreased SLC19A2-mediated thiamine uptake by 50% or more at 1 mM. For compounds that met this definition, inhibition assays were conducted and IC50 values were calculated by nonlinear fitting using GraphPad Prism 7 (La Jolla, CA) ([11]).
Fig. 3 Common mechanisms of drug-induced megaloblastic anemia and SLC19A2 inhibitor drug screen workflow. A list of drugs associated with inducing megaloblastic anemia through various mechanisms was compiled (a). Each drug was dissolved to a final concentration of 1 mM in buffer containing radiolabeled [^3H] thiamine and exposed to HEK293 cells expressing SLC19A2 wild-type transporter for 10 min.

Compound | remaining activity at 1000 µM [%]
Nc1ccc(O)c(C(=O)O)c1 [5-aminosalicylic acid] | 87.7
O=c1[nH]cc(F)c(=O)[nH]1 [5-fluorouracil] | 93.8
Oc1ncnc2[nH]ncc12 [Allopurinol] | 96.9
NCC[C@H](O)C(=O)N[C@@H]1C[C@H](N)[C@@H](O[C@H]2O[C@H](CN)[C@@H](O)[C@H](O)[C@H]2O)[C@H](O)[C@H]1O[C@H]1O[C@H](CO)[C@@H](O)[C@H](N)[C@H]1O [Amikacin] | 98.7
Nc1nc(N)c2nc(CNc3ccc(C(=O)N[C@@H](CCC(=O)O)C(=O)O)cc3)cnc2n1 [Aminopterin] | 93
CC1(C)S[C@@H]2[C@H](NC(=O)[C@H](N)c3ccc(O)cc3)C(=O)N2[C@H]1C(=O)O [Amoxicillin] | 95.9
CO[C@H]1O[C@@H]2O[C@@]3(C)CC[C@H]4[C@H](C)CC[C@@H]([C@H]1C)[C@@]24OO3 [Artemether] | 67.4
Cn1cnc([N+](=O)[O-])c1Sc1ncnc2nc[nH]c12 [Azathioprine] | 87.2
CC[C@H]1OC(=O)[C@H](C)[C@@H](O[C@H]2C[C@@](C)(OC)[C@@H](O)[C@H](C)O2)[C@H](C)[C@@H](O[C@@H]2O[C@H](C)C[C@H](N(C)C)[C@H]2O)[C@](C)(O)C[C@@H](C)CN(C)[C@H](C)[C@@H](O)[C@]1(C)O [Azithromycin] | 81.9
CC1(C)S[C@@H]2[C@H](NC(=O)C(C(=O)O)c3ccccc3)C(=O)N2[C@H]1C(=O)O (stereo partly shown) [Carbenicillin] | 90.8
O=C(N[C@H](CO)[C@H](O)c1ccc([N+](=O)[O-])cc1)C(Cl)Cl [Chloramphenicol] | 91.5
CN/C(=N/CCSCc1nc[nH]c1C)NC#N [Cimetidine] | 107
CC[C@H]1OC(=O)[C@H](C)[C@@H](O[C@H]2C[C@@](C)(OC)[C@@H](O)[C@H](C)O2)[C@H](C)[C@@H](O[C@@H]2O[C@H](C)C[C@H](N(C)C)[C@H]2O)[C@](C)(OC)C[C@@H](C)C(=O)[C@H](C)[C@@H](O)[C@]1(C)O [Clarithromycin] | 58.2
C[C@H]1c2cccc(O)c2C(=O)C2=C(O)[C@]3(O)C(=O)C(C(N)=O)=C(O)[C@@H](N(C)C)[C@@H]3[C@@H](O)[C@@H]21 [Doxycycline] | 67.8
COc1ccc2nc([S@@+]([O-])Cc3ncc(C)c(OC)c3C)[nH]c2c1 [Esomeprazole] | 57.7
C[C@]12CC[C@@H]3c4ccc(O)cc4CC[C@H]3[C@@H]1CC[C@@H]2O [Estradiol] | 112
NC(N)=Nc1nc(CSCCC(N)=NS(N)(=O)=O)cs1 [Famotidine] | 74
Cc1cnc(Nc2ccc(OCCN3CCCC3)cc2)nc1Nc1cccc(S(=O)(=O)NC(C)(C)C)c1 [Fedratinib] | 21
Nc1nc(F)nc2c1ncn2[C@@H]1O[C@H](CO)[C@@H](O)[C@@H]1O [Fludarabine] | 71.1
Nc1ccn([C@@H]2O[C@H](CO)[C@@H](O)C2(F)F)c(=O)n1 [Gemcitabine] | 63.3
CNC(C)C1CCC(N)C(OC2C(N)CC(N)C(OC3OCC(C)(O)C(NC)C3O)C2O)O1 (stereo not shown) [Gentamicin] | 81.9
NNC(=O)c1ccncc1 [Isoniazid] | 108
Cc1c(OCC(F)(F)F)ccnc1C[S+]([O-])c1nc2ccccc2[nH]1 (stereo not shown) [Lansoprazole] | 45.9
Cc1oncc1C(=O)Nc1ccc(C(F)(F)F)cc1 [Leflunomide] | 57.7
CC(=O)NC[C@H]1CN(c2ccc(N3CCOCC3)c(F)c2)C(=O)O1 [Linezolid] | 77.7
S=c1[nH]cnc2nc[nH]c12 [Mercaptopurine] | 90.5
CN(C)C(=N)N=C(N)N [Metformin] | 74.2
Cc1onc(-c2ccccc2)c1C(=O)N[C@@H]1C(=O)N2[C@@H]1SC(C)(C)[C@@H]2C(=O)O [Oxacillin] | 110
COc1cc(NC(C)CCCN)c2ncccc2c1 (stereo not shown) [Primaquine] | 76.5
CN(C)[C@@H]1C(O)=C(C(N)=O)C(=O)[C@@]2(O)C(O)=C3C(=O)c4c(O)cccc4[C@@](C)(O)[C@H]3C[C@@H]12 [Tetracycline] | 83.6

More lines, now with the values ahead:

remaining activity at 1000 µM [%] | Compound
84.9 | CN(Cc1cnc2nc(N)nc(N)c2n1)c1ccc(C(=O)N[C@@H](CCC(=O)O)C(=O)O)cc1 [Methotrexate]
82.7 | COc1c(C)c2c(c(O)c1C/C=C(\C)CCC(=O)O)C(=O)OC2 [Mycophenolic acid]
82.3 | [H]/N=C(/N)N/C(=N/[H])NCCc1ccccc1 [Phenformin]
75 | O=C1NC(=O)C(c2ccccc2)(c2ccccc2)N1 [Phenytoin]
68.8 | [H]/N=C(\N/C(=N/[H])Nc1ccc(Cl)cc1)NC(C)C [Proguanil]
99.2 | CCc1nc(N)nc(N)c1-c1ccc(Cl)cc1 [Pyrimethamine]
53 | C=C[C@H]1C[N@@]2CC[C@H]1C[C@@H]2[C@@H](O)c1ccnc2ccc(OC)cc12 [Quinidine]
69.7 | C=C[C@H]1C[N@@]2CC[C@H]1C[C@H]2[C@H](O)c1ccnc2ccc(OC)cc12 [Quinine]
75.3 | COCCCOc1ccnc(C[S+]([O-])c2nc3ccccc3[nH]2)c1C (stereo not shown) [Rabeprazole]
88.2 | Cc1nc2ccc(CN(C)c3ccc(C(=O)N[C@@H](CCC(=O)O)C(=O)O)s3)cc2c(=O)[nH]1 [Raltitrexed]
111 | CNC(=C[N+](=O)[O-])NCCSCc1ccc(CN(C)C)o1 [Ranitidine]
56.1 | CO[C@H]1/C=C/O[C@@]2(C)Oc3c(C)c(O)c4c(O)c(c(/C=N/N5CCN(C)CC5)c(O)c4c3C2=O)NC(=O)/C(C)=C\C=C\[C@H](C)[C@H](O)[C@@H](C)[C@@H](O)[C@@H](C)[C@H](OC(C)=O)[C@@H]1C [Rifampicin]
94.8 | COc1ncnc(NS(=O)(=O)c2ccc(N)cc2)c1OC [Sulfadoxine]
101 | O=C(O)c1cc(/N=N/c2ccc(S(=O)(=O)Nc3ccccn3)cc2)ccc1O [Sulfasalazine]
95.7 | C/C(O)=C(\C#N)C(=O)Nc1ccc(C(F)(F)F)cc1 [Teriflunomide]
93.3 | Nc1nc2nc[nH]c2c(=S)[nH]1 [Thioguanine]
111 | Nc1nc(N)c2nc(-c3ccccc3)c(N)nc2n1 [Triamterene]

same assay, conditions: HEK293, 10 min, read-out: Average % SLC19A2 thiamine uptake

Compound | remaining activity at 1000 µM [%]
CC1(C)S[C@@H]2[C@H](NC(=O)[C@H](N)c3ccccc3)C(=O)N2[C@H]1C(=O)O [Ampicillin] | 102
COc1cc2c(c(OC)c1OC)-c1ccc(OC)c(=O)cc1[C@@H](NC(C)=O)CC2 [Colchicine] | 95.9

same assay, conditions: HEK293, 10 min; at 1 mM; read-out: reduction in thiamine transport (designated SLC19A2 inhibitor)

inhibition at 1000 µM [%] | Compound
≥ 50 | Cc1cnc(Nc2ccc(OCCN3CCCC3)cc2)nc1Nc1cccc(S(=O)(=O)NC(C)(C)C)c1 [Fedratinib]
≥ 50 | Cc1c(OCC(F)(F)F)ccnc1C[S+]([O-])c1nc2ccccc2[nH]1 (stereo not shown) [Lansoprazole]

same assay, conditions: drug 1 mM, [3H]-thiamine 25 nM, 10 min, HEK293 cells expressing SLC19A2; relative to uptake without inhibitor

Compound | Average % SLC19A2 thiamine uptake [%]
NC(=O)NO [Hydroxyurea] | 105.5
CCCCN(CCCC)CC(O)c1cc(Cl)cc2c1-c1ccc(Cl)cc1/C2=C/c1ccc(Cl)cc1 (stereo not shown) [Lumafantrine] | 87.72

The remaining lines, values ahead:

Average % SLC19A2 thiamine uptake [%] | Compound
101.075 | O=C1CN(/N=C/c2ccc([N+](=O)[O-])o2)C(=O)N1 [Nitrofuranatoin]
86.37 | Neomycin
